Source: US20260191889A1, “TREHALOSE FOR TREATING HUNTINGTON'S DISEASE” (GLD Debt Acquisition 2025-1, priority 2022, published 2026)

Legend:
Format in all cases: in vivo, Mus musculus
DARPP-32 = DARPP-32 immunohistochemistry in brain of R6/2 mice; settings: MT-treated vs untreated transgenic R6/2 mice, FIG. 1
Procedure: (§1) Cryosectioning—Cryosectioning was performed to striatal (left hemisphere) (Bregma +1.30 mm to −0.8 mm from Bregma, containing the infusion site at +0.5 mm) region and sections were collected as 20 μm thick sections on slides. A series of sections consisted of 8 sections with an interval of 300 μm in-between each section. A total of 5 series were collected from the target region using subsequent slides. For phase I, Series 1 & 3 were used for IHC analysis of EM48, series 2 was used for Darpp-32, series 4 was used for Iba1+GFAP and Series 5 was used for piloting and negative controls. For phase II, A total of 6 series were collected from the target region using subsequent slides. Series 1 was used for IHC analysis of EM48, series 2 was used for Darpp-32, series 4 was used for Iba1+GFAP. Series 5 was collected as spare samples and series 6 was used for piloting and negative controls. […]
(§2) Antigen expression analyses—The stained sections were scanned with the Olympus VS120 slide scanner using the proper fluorescent or brightfield channels. The regions of interest (ROIs) (striatum/cortex) were analyzed for positive immunostaining of the respective targets (EM48, DARPP-32, GFAP and Iba1) applying the VIS—Visiopharm Integrator System (Visiopharm, Denmark).
(§3) Positive staining of the respective antigens was detected by applying a suitable threshold which recognizes only truly positive staining. […]

[1] = tested on: EM48 (huntingtin protein; mHTT aggregates); assay: EM48 immunohistochemistry in brain of R6/2 mice; settings: MT-treated vs untreated transgenic R6/2 mice
Procedure: as §1, §2, §3

GFAP = GFAP immunohistochemistry in brain of R6/2 mice; settings: MT-treated vs untreated transgenic R6/2 mice, FIG. 4
Procedure: as §1, with “Iba1+GFAP.” for “Iba1+GFAP. Series 5 was collected as spare samples and series 6 was used for piloting and negative controls.”
(§4) For fluorescence immunohistochemistry (GFAP and Iba-1) the following general protocol was applied: […]
as §2, §3

Iba-1 = Iba-1 immunohistochemistry in brain of R6/2 mice; settings: MT-treated vs untreated transgenic R6/2 mice, FIG. 5
Procedure: as §1, with “Iba1+GFAP.” for “Iba1+GFAP. Series 5 was collected as spare samples and series 6 was used for piloting and negative controls.”
as §4, §2, §3

OC[C@H]1O[C@H](O[C@H]2O[C@H](CO)[C@@H](O)[C@H](O)[C@H]2O)[C@H](O)[C@@H](O)[C@@H]1O [MT, trehalose]
lower levels: levels of DARPP-32 in the striatum (IHC, positive cells/mm^2) (DARPP-32) | levels of EM48 in the cortex (IHC, positive cells/mm^2) ([1]; FIG. 2) | levels of EM48 in the striatum (IHC, positive cells/mm^2) ([1]; FIG. 3) | levels of GFAP in the striatum (IHC, % staining area) (GFAP) | levels of Iba-1 in the striatum (IHC, % staining area) (Iba-1)
